Data reported in the supplement of paper PMC11208160.

assay: recombinant barcode read abundance after kanamycin selection (control-corrected) (log10(CPM+1)); higher = more efficient recombination; sequences stand for … in AGTGCAGAGAAAATCGGCCAGTTTTCTCTGCCTGCAGTCCGCATGCCGT…AGATTTATGCAGCGGACTGCCTTTCTCCCAAAGTGATAAACCGGACAGTATCATGGACCGGTTTTCCCGGTAATCCGTATTTGCAAGGTTGGTTTCACT; site = the 11-nt target
Method in brief: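 Recombination efficiency comes from barcode counts at recombinant junctions, converted to counts per million, averaged and corrected against the control. Values appear as log10(CPM+1). They were obtained from a pooled E. coli screen in which each oligo paired a target with an IS621 bridge RNA target-binding loop, and cells were plated in duplicate on chloramphenicol/ampicillin LB agar or on chloramphenicol/ampicillin/kanamycin with 0.1 mM IPTG.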
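Further: IS621 recombinase and bridge RNA in Escherichia coli cells.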

Point of comparison: “GAGGACTCTTGGGTTCTAACCTGTTGCCA (site GAGGACTCTGG)”, “recombinant barcode read abundance (log10)” value 0.824. Against it:
- AGGTCTGCTTGGGTTCTAACCTGTTGCCT (site AGGTTTGCTAG) — lower, 0.0282
- GAATGTTCTTGGGTTCTAACCTGTTGCTT (site GAATATTCTAA) — lower, 0.0132
- ACGTCAACTTGGGTTCTAACCTGTTGCCT (site ACTTCAACTAG) — lower, 0.0307
- TCTGGGGCTTGGGTTCTAACCTGTTGCCG (site TCTGGGGCTCA) — lower, 0.536
- GATAGAGCTTGGGTTCTAACCTGTTGCCG (site GATATAGCTAG) — lower, 0
- CCGGGTTCTTGGGTTCTAACCTGTTGCCT (site CTGGGTTCTAG) — lower, 0.154
- CAACCACCTTGGGTTCTAACCTGTTGCTT (site CAAGCACCTAA) — lower, 0.0953
- CTCGTGTCTTGGGTTCTAACCTGTTGCAT (site AGAACTACTTG) — lower, 0.00883
- CGAGGGGCTTGGGTTCTAACCTGTTGCCT (site CGAGGGTCTAG) — lower, 0.35
- TAACCTGCTTGGGTTCTAACCTGTTGCCT (site TAACCTTCTAG) — lower, 0.624
- ATGAGAACTTGGGTTCTAACCTGTTGCCG (site ATGAGAACTAG) — higher, 1.58
- GTACGCGCTTGGGTTCTAACCTGTTGCGT (site CTACGCGCTAA) — lower, 0.392
- TGCGACTCTTGGGTTCTAACCTGTTGCCT (site TGAGACTCTAG) — higher, 1.47
- TTGACATCTTGGGTTCTAACCTGTTGCCT (site TTGAAATCTAG) — lower, 0.179
- TATGAGGCTTGGGTTCTAACCTGTTGCCT (site TATGCGGCTAG) — lower, 0.26
- ACTGATCCTTGGGTTCTAACCTGTTGCCT (site ACTGATTCTAG) — lower, 0.0263
- GGACTCACTTGGGTTCTAACCTGTTGCCT (site GGACTCACTAG) — higher, 1.77
- AATTGGACTTGGGTTCTAACCTGTTGCTT (site GATTGGACTAA) — lower, 0.0807
- GGAGAGGCTTGGGTTCTAACCTGTTGCCT (site GGAGAGGCTAG) — higher, 1.54
- CGAATCGCTTGGGTTCTAACCTGTTGCCT (site CGAATCCCTAG) — lower, 0.0216
- TAGAACTCTTGGGTTCTAACCTGTTGCGT (site TAGAACTCTAC) — higher, 1.07
- CTCCGTCCTTGGGTTCTAACCTGTTGCCT (site CTCCGTCCTAG) — higher, 1.5
- AAGTCGTCTTGGGTTCTAACCTGTTGCTA (site AAGTCGTCTTA) — within 0.2 log units, 0.857
- GAAACGGCTTGGGTTCTAACCTGTTGCCT (site GAAAGGGCTAG) — lower, 0.0962
- CGGAGAGCTTGGGTTCTAACCTGTTGCCT (site CTGAGAGCTAG) — lower, 0
- GGTCGCTCTTGGGTTCTAACCTGTTGCCT (site GGTCGCTCTAG) — higher, 1.35
- ACAGCTACTTGGGTTCTAACCTGTTGCCT (site ACAGCTTCTAG) — lower, 0.33
- CTATTGTCTTGGGTTCTAACCTGTTGCGA (site CTATTGTCTGC) — lower, 0.0565
- TAGCTGACTTGGGTTCTAACCTGTTGCCT (site TAGCAGACTAG) — higher, 1.14
- TAGCCGGCTTGGGTTCTAACCTGTTGCTT (site TAGCCGGCTAG) — lower, 0.386
- TAGCCATCTTGGGTTCTAACCTGTTGCCT (site TAACCATCTAG) — lower, 0.0247
- GGGAACCCTTGGGTTCTAACCTGTTGCTT (site GGGAACCCTAA) — higher, 1.25
- ACTGATACTTGGGTTCTAACCTGTTGCCT (site ACTGATGCTAG) — lower, 0.313
- GCACACTCTTGGGTTCTAACCTGTTGCCT (site GCACTCTCTAG) — lower, 0.261
- GTGTCGCCTTGGGTTCTAACCTGTTGCGT (site GTGTCGCCTAG) — lower, 0.0604
- CACAGATCTTGGGTTCTAACCTGTTGCTT (site CATAGATCTAA) — lower, 0.0763
- GTTCGAGCTTGGGTTCTAACCTGTTGCCT (site GTTGGAGCTAG) — lower, 0.114
- AAGAAAGCTTGGGTTCTAACCTGTTGCCT (site AAGATAGCTAG) — lower, 0.464
- TAGTACGCTTGGGTTCTAACCTGTTGCTT (site TAGTACGCTAA) — within 0.2 log units, 0.848
- AATAACTCTTGGGTTCTAACCTGTTGCCT (site AATAACTCTAG) — within 0.2 log units, 0.863
- CTACGTCCTTGGGTTCTAACCTGTTGCTG (site CTACGTCCTCA) — higher, 1.64
- AACTCAACTTGGGTTCTAACCTGTTGCCT (site AACTGAACTAG) — lower, 0.18
- CTATCGACTTGGGTTCTAACCTGTTGCCT (site CTATGGACTAG) — lower, 0.163
- TTGTATTCTTGGGTTCTAACCTGTTGCCT (site TTGAATTCTAA) — lower, 0.0409
- GGACCGCCTTGGGTTCTAACCTGTTGCCT (site CGATCGCCTAG) — lower, 0.129
- TCTTGGACTTGGGTTCTAACCTGTTGCTG (site TCTTGGACTAA) — lower, 0.159
- CTTCCTTCTTGGGTTCTAACCTGTTGCCT (site CTTCCTTCTAG) — lower, 0.543
- CATGGGACTTGGGTTCTAACCTGTTGCAT (site CATGGGACTAT) — higher, 2.06
- TTGAAATCTTGGGTTCTAACCTGTTGCCT (site TTGAAATCTAG) — lower, 0.131
- TACAAGTCTTGGGTTCTAACCTGTTGCCT (site TACAAGTCTAG) — within 0.2 log units, 0.625
- GAAAATCCTTGGGTTCTAACCTGTTGCCT (site GAAACTCCTAG) — lower, 0.0115
- ACTTAGTCTTGGGTTCTAACCTGTTGCTA (site ACTTAGTCTTA) — lower, 0.277
- GAGTAGACTTGGGTTCTAACCTGTTGCTT (site GAGTAGACTAA) — higher, 1.64
- CCGTAACCTTGGGTTCTAACCTGTTGCCT (site CCGTAATCTAG) — lower, 0.237
- CATCGAGCTTGGGTTCTAACCTGTTGCCG (site CATCGAGCTCG) — lower, 0.283
- TTCACGGCTTGGGTTCTAACCTGTTGCCT (site TTCACGGCTAG) — lower, 0.0164
- CGACTCCCTTGGGTTCTAACCTGTTGCGT (site GTCAAGTCTGA) — lower, 0.391
- CTAAATACTTGGGTTCTAACCTGTTGCTA (site CTAAATACTTA) — lower, 0.126
- GTGAAGACTTGGGTTCTAACCTGTTGCTT (site AACGTACCTCT) — lower, 0.125
- GGGTCCTCTTGGGTTCTAACCTGTTGCCC (site GGGTCCTCTCG) — lower, 0.0863
- GCGCTTACTTGGGTTCTAACCTGTTGCCT (site GCGCTTACTAG) — within 0.2 log units, 0.665
- GGGGACCCTTGGGTTCTAACCTGTTGCGT (site GGGGACCCTTC) — higher, 1.18
- AACTAAGCTTGGGTTCTAACCTGTTGCCT (site AACTAAGCTAG) — lower, 0.336
- TTCACAGCTTGGGTTCTAACCTGTTGCCT (site TTCACACCTAG) — lower, 0.0537
- ACTGGTCCTTGGGTTCTAACCTGTTGCGG (site GACATATCTAA) — lower, 0.0953
